System: 324938-238-R-J1-PDC complex spheroid growth, % test/control
Assay: Anticancer human tumor 324938-238-R-J1-PDC patient-derived bladder carcinoma cell line growth inhibition [AhR]
Settings: for IC50: curve of first compound; for viability, T/C: stronger effect = lower value
Method in brief: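 Agents were dosed in half-log steps down from roughly clinical Cmax, or from 10 microM where Cmax was unknown, alone and with AhR antagonists. Read-out: percent test/control growth of tumor spheroids containing HUVEC and MSC stromal cells.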

[1] = second compound 0.1 µM, first compound 0.0316 µM
[2] = second compound 0.1 µM, first compound 0.1 µM
[3] = second compound 0.1 µM, first compound 0.316 µM
[4] = second compound 0.1 µM, first compound 1 µM
[5] = second compound 0.1 µM, first compound 3.16 µM
[6] = second compound 0.1 µM, first compound 10 µM
[7] = second compound 0.316 µM, first compound 0.0316 µM
[8] = second compound 0.316 µM, first compound 0.1 µM
[9] = second compound 0.316 µM, first compound 0.316 µM
[10] = second compound 0.316 µM, first compound 1 µM
[11] = second compound 0.316 µM, first compound 3.16 µM
[12] = second compound 0.316 µM, first compound 10 µM
[13] = second compound 1 µM, first compound 0.0316 µM
[14] = second compound 1 µM, first compound 0.1 µM
[15] = second compound 1 µM, first compound 0.316 µM
[16] = second compound 1 µM, first compound 1 µM
[17] = second compound 1 µM, first compound 3.16 µM
[18] = second compound 1 µM, first compound 10 µM
[19] = second compound 3.16 µM, first compound 0.0316 µM
[20] = second compound 3.16 µM, first compound 0.1 µM
[21] = second compound 3.16 µM, first compound 0.316 µM
[22] = second compound 3.16 µM, first compound 1 µM
[23] = second compound 3.16 µM, first compound 3.16 µM
[24] = second compound 3.16 µM, first compound 10 µM
[25] = second compound 10 µM, first compound 0.0316 µM
[26] = second compound 10 µM, first compound 0.1 µM
[27] = second compound 10 µM, first compound 0.316 µM
[28] = second compound 10 µM, first compound 1 µM
[29] = second compound 10 µM, first compound 3.16 µM
[30] = second compound 10 µM, first compound 10 µM
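Further: spheroids exposed to agents for seven days before viability read.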

| Compound | IC50 (second compound 0.1 µM) | IC50 (second compound 0.316 µM) | IC50 (second compound 1 µM) | IC50 (second compound 3.16 µM) | IC50 (second compound 10 µM) | viability, T/C [1] | viability, T/C [2] | viability, T/C [3] | viability, T/C [4] | viability, T/C [5] | viability, T/C [6] | viability, T/C [7] | viability, T/C [8] | viability, T/C [9] | viability, T/C [10] | viability, T/C [11] | viability, T/C [12] | viability, T/C [13] | viability, T/C [14] | viability, T/C [15] | further results |
| --- | --- | --- | --- | --- | --- | --- | --- | --- | --- | --- | --- | --- | --- | --- | --- | --- | --- | --- | --- | --- | --- |
| Nc1ccccc1NC(=O)c1ccc(CNC(=O)OCc2cccnc2)cc1 + CC(CO)NC(=O)c1cc(-c2ccc(Cl)cc2)nn(-c2cnn(C)c2)c1=O | 3.83 µM | 2.54 µM | 3.99 µM | 3.25 µM | 2.71 µM | 116% | 122% | 99.1% | 66.3% | 63.9% | 26.3% | 118% | 112% | 95.2% | 61.4% | 52.4% | 26.7% | 99.2% | 109% | 102% | viability, T/C [16]: 69.5%; viability, T/C [17]: 61.6%; viability, T/C [18]: 25.7%; viability, T/C [19]: 88%; viability, T/C [20]: 90.8%; viability, T/C [21]: 84.9%; viability, T/C [22]: 63.9%; viability, T/C [23]: 56.4%; viability, T/C [24]: 7.19%; viability, T/C [25]: 82.2%; viability, T/C [26]: 90.8%; viability, T/C [27]: 80.9%; viability, T/C [28]: 63.9%; viability, T/C [29]: 50%; viability, T/C [30]: 1.83% |
| O=C(c1cc(Cc2n[nH]c(=O)c3ccccc23)ccc1F)N1CCN(C(=O)C2CC2)CC1 + CC(CO)NC(=O)c1cc(-c2ccc(Cl)cc2)nn(-c2cnn(C)c2)c1=O | 9.56 µM | > 10 µM | > 10 µM | 6.86 µM | 5.14 µM | 97.6% | 104% | 85.3% | 75.6% | 66.9% | 48.6% | 83.3% | 81% | 79.2% | 69.8% | 65.3% | 52% | 82% | 77.1% | 75.1% | viability, T/C [16]: 70.6%; viability, T/C [17]: 65.7%; viability, T/C [18]: 54%; viability, T/C [19]: 65.8%; viability, T/C [20]: 69.8%; viability, T/C [21]: 73.7%; viability, T/C [22]: 57.8%; viability, T/C [23]: 53.9%; viability, T/C [24]: 48.4%; viability, T/C [25]: 58.8%; viability, T/C [26]: 63.8%; viability, T/C [27]: 55.5%; viability, T/C [28]: 50.5%; viability, T/C [29]: 54.1%; viability, T/C [30]: 47.5% |

— PubChem BioAssay AID1918995 (Molecular Pharmacology Branch, DTP, NCI, 2023)
